The source of these data is patent US7141591B2, “1,2,4-oxadiazole derivatives as hPPAR alpha agonists” (SmithKline Beecham Corporation, priority 2000, dated 2006).

One series addresses T1, human PPAR gamma (Homo sapiens, UniProt P37231).
T1 construct: expressed in transfected cells; host or cells: CV-1 cells
T1 sequence (P37231 238-503 limits assumed): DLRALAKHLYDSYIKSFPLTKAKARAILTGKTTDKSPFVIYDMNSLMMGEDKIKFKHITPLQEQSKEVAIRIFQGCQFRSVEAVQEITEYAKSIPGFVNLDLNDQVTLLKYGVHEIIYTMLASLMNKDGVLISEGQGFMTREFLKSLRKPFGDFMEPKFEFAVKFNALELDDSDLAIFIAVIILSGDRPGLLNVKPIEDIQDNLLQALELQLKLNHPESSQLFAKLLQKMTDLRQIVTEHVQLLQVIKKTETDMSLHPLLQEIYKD
In words: Transient transfection (transactivation) assay in CV-1 cells, hPPAR gamma. To be noted: PPAR transactivation activity, GAL4 chimera, concentration giving 50% of maximum activity, read-out: human γEC50. It is filed as cell-based. The source says:
(§1) Compounds were screened for functional potency in transient transfection assays in CV-1 cells for their ability to activate the PPAR subtypes (transactivation assay). A previously established chimeric receptor system was utilized to allow comparison of the relative transcriptional activity of the receptor subtypes on the same target gene and to prevent endogenous receptor activation from complicating the interpretation of results. See, for example, Lehmann, J. M.; Moore, L. B.; Smith-Oliver, T. A.; Wilkison, W. O.; Willson, T. M.; Kliewer, S. A., An antidiabetic thiazolidinedione is a high affinity ligand for peroxisome proliferator-activated receptor γ (PPARγ), J. Biol. Chem., 1995, 270, 12953–6. The ligand binding domains for murine and human PPAR alpha, PPAR gamma, and PPAR delta were each fused to the yeast transcription factor GAL4 DNA binding domain. CV-1 cells were transiently transfected with expression vectors for the respective PPAR chimera along with a reporter construct containing five copies of the GAL4 DNA binding site driving expression of secreted placental alkaline phosphatase (SPAP) and β-galactosidase. After 16 h, the medium was exchanged to DME medium supplemented with 10% delipidated fetal calf serum and the test compound at the appropriate concentration. After an additional 24 h, cell extracts were prepared and assayed for alkaline phosphatase and β-galactosidase activity. Alkaline phosphatase activity was corrected for transfection efficiency using the β-galactosidase activity as an internal standard (see, for example, Kliewer, S. A., et. al. Cell 83, 813–819 (1995)). Rosiglitazone (BRL 49653) was used as a positive control in the hPPAR gamma assay. The positive control in the hPPAR alpha assays was 2-methyl-2-[4-{[(4-methyl-2-[4-trifluoromethylphenyl]-thiazol-5-yl-carbonyl)amino]methyl}-phenoxy]propionic acid. The positive control for PPAR delta assays was 2-{2-methyl-4-[({4-methyl-2-{trifluoromethyl)phenyl]-1,3-thiazol-5-yl}methyl)sulfanyl]phenoxy}acetic acid.

Another series concerns the target T2, human PPAR alpha (Homo sapiens, UniProt Q07869).
T2 construct: expressed in transfected cells; host or cells: CV-1 cells
T2 sequence (Q07869 239-466 limits assumed): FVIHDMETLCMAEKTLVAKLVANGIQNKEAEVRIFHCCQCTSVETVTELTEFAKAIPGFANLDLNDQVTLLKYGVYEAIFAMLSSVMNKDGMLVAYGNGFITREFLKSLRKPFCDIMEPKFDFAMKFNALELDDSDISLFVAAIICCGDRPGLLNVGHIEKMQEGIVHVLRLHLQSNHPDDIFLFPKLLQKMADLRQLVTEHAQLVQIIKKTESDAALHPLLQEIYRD
The series is described as follows: Transient transfection (transactivation) assay in CV-1 cells, hPPAR alpha. The series is classed as cell-based. Particulars: PPAR transactivation activity, GAL4 chimera, concentration giving 50% of maximum activity, read-out: human αEC50.
Source text: as §1

The next series has as its target T3, human PPAR delta (Homo sapiens, UniProt Q03181).
T3 construct: expressed in transfected cells; host or cells: CV-1 cells
T3 sequence (Q03181 211-439 limits assumed): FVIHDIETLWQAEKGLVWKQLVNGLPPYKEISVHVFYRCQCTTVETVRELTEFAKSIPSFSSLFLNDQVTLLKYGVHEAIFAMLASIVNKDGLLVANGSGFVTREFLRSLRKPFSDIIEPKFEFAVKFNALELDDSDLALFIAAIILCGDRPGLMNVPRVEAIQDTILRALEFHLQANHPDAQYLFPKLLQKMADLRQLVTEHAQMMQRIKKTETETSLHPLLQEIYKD
In words: Transient transfection (transactivation) assay in CV-1 cells, hPPAR delta. To be noted: PPAR transactivation activity, GAL4 chimera, concentration giving 50% of maximum activity, read-out: human δEC50. The series is classed as cell-based.
Source text: as §1

Regarding `Cc1cc(OCc2nc(-c3ccc(C(C)(C)C)cc3)no2)ccc1OC(C)(C)C(=O)O` [Example 10, 2-methyl-2-[4-(3-(4-tert-butyl-phenyl)-[1,2,4]oxadiazol-5-ylmethoxy]-2-methyl-phenoxy]-propionic acid], the melting point – broadly, the temperature of the solid-liquid transition – fell in the range of 155 to 157 °C. Further, the EC50 at human PPAR gamma stood at 11.4 µM. Also, the EC50 at human PPAR alpha came out at 0.024 µM.
`Cc1cc(OCc2nc(-c3ccc(C(C)C)cc3)no2)ccc1OC(C)(C)C(=O)O` [Example 11]: the melting point amounted to 138 °C. The EC50 on human PPAR delta was determined as 9.31 µM. Further, the EC50 at human PPAR gamma turned out to be 10 µM. For the same molecule, the EC50 on human PPAR alpha turned out to be 0.059 µM.
For `Cc1cc(OCc2nc(-c3ccc(C(F)(F)F)cc3)no2)ccc1OC(C)(C)C(=O)O` [Example 12, 2-methyl-2-{4-[3-(4-trifluoromethyl-phenyl)-[1,2,4]oxadiazol-5-ylmethoxy]-2-methyl-phenoxy}-propionic acid] the same measures were 170 °C, 0.311 µM, 4.3 µM and 0.036 µM.
As to `CC(C)(Oc1ccc(OCc2nc(-c3ccc(C(C)(C)C)cc3)no2)cc1)C(=O)O` [Example 13, 2-methyl-2-[4-(3-(4-tert-butyl-phenyl)-[1,2,4]oxadiazol-5-ylmethoxy]-phenoxy]-propionic acid], the melting point was 138 to 140 °C. In addition, the EC50 at human PPAR gamma stood at 0.85 µM. Moreover, the EC50 at human PPAR alpha was 0.092 µM.
For `CC(C)c1ccc(-c2noc(COc3ccc(OC(C)(C)C(=O)O)cc3)n2)cc1` [Example 14] the same measures were 117 °C, 10 µM and 0.077 µM.
Regarding `CC(C)(Oc1ccc(OCc2nc(-c3ccc(C(F)(F)F)cc3)no2)cc1)C(=O)O` [Example 15, 2-methyl-2-{4-[3-(4-trifluoromethyl-phenyl)-[1,2,4]oxadiazol-5-ylmethoxy]-phenoxy}-propionic acid], the melting point was found to be 164 °C. Moreover, the EC50 at human PPAR delta turned out to be 4.51 µM. Also, at human PPAR gamma, the EC50 came out at 10 µM. At human PPAR alpha, the EC50 came to 0.098 µM.
For `CC(C)c1ccc(-c2nc(COc3ccc(OC(C)(C)C(=O)O)cc3)no2)cc1` [Example 16, 2-methyl-2-{4-[5-(4-isopropyl-phenyl)-[1,2,4]oxadiazol-3-ylmethoxy]-phenoxy}propionic acid], the EC50 on human PPAR delta amounted to 8.4 µM; at human PPAR gamma, 10 µM; at human PPAR alpha, 0.029 µM.
For `CC(C)(Oc1ccc(OCc2noc(-c3ccc(C(C)(C)C)cc3)n2)cc1)C(=O)O` [Example 17, 2-methyl-2-{4-[5-(4-tert-butyl-phenyl)-[1,2,4]oxadiazol-3-ylmethoxy]-phenoxy}propionic acid], the EC50 on human PPAR gamma came out at 10 µM; at human PPAR alpha it was 0.04 µM.
